Patent US9663486B2, “Selectively substituted quinoline compounds” (EISAI R&D MANAGEMENT CO., LTD., priority 2013, dated 2017)
“Also recorded” adds a separate entry of the source.

Tested on: auto-antibody titers (anti-dsDNA, anti-histone, anti-Sm/RNP, anti-RiboP)
Assay: DBA/1 pristane lupus model, auto-antibody titers by ELISA
Format: in vivo, mouse
Conditions: DBA/1 mice, once-a-day oral dosing
Method: FIG. 1A through FIG. 1D show results of treatment with ER-888840 (5-((3R,5S)-3-amino-5-methylpiperidin-1-yl)quinoline-8-carbonitrile) in the DBA/1 pristane model. Figure Legend: Female DBA/1 mice at 10 weeks of age were given an intraperitoneal injection of 0.5 ml pristane or PBS. At 18 weeks of age animals were bled for pre-dosing baseline auto-antibody titers. Once-a-day oral dosing with Vehicle (Veh; 0.5% methyl-cellulose) or 11 mg/kg, 33 mg/kg, or 100 mg/kg of ER-888840 was begun at 18 weeks of age, 8 weeks after pristane injection and continued for 12 weeks of treatment. At the end of the experiment plasma samples were taken and anti-dsDNA and anti-histone (FIG. 1A) and anti-Sm/RNP and anti-RiboP (FIG. 1B) titers were determined by ELISA. (FIG. 1C) The expression of IFN-regulated genes in whole blood was measured by a qPCR panel after 8 weeks of treatment. […] (FIG. 1D) The interferon scores of individual mice were calculated (see Pharmacology Materials and Methods section for details regarding IFN score calculation) and groups compared using the Mann-Whitney t test.
FIG. 2A through 2E show results of treatment with ER-888840 in the DBA/1 pristane model. […] At the end of the experiment plasma was taken and anti-dsDNA (FIG. 2A), anti-RiboP (FIG. 2B), anti-histone (FIG. 2C) and anti-Sm/RNP (FIG. 2D) titers were determined by ELISA. […]

C[C@H]1C[C@@H](N)CN(c2ccc(C#N)c3ncccc23)C1 [ER-888840, 5-((3R,5S)-3-amino-5-methylpiperidin-1-yl)quinoline-8-carbonitrile]
effect on auto-antibody specificities: suppressed multiple auto-antibody specificities; also recorded: limited the production of several autoantibody specificities
